Experiments:
[1] = system: symmetric di-methyl arginine in Z-138 cells; assay: Z-138 Methylation Assay (In Cell Western for symmetric di-methyl arginine and DNA content); format: cell-based; conditions: Homo sapiens, 96 hours incubation, read-out: ICW EC50
Description: [formula] [formula] Where top and bottom are the normally allowed to float, but may be fixed at 100 or 0 respectively in a 3-parameter fit. The Hill Coefficient normally allowed to float but may also be fixed at 1 in a 3-parameter fit. Y is the % inhibition and X is the compound concentration. Z-138 Methylation Assay
Z-138 suspension cells were purchased from ATCC (American Type Culture Collection, Manassas, Va.). RPMI/Glutamax medium, penicillin-streptomycin, heat inactivated fetal bovine serum, and D-PBS were purchased from Life Technologies, Grand Island, N.Y., USA. Odyssey blocking buffer, 800CW goat anti-rabbit IgG (H+L) antibody, and Licor Odyssey infrared scanner were purchased from Licor Biosciences, Lincoln, Nebr., USA. Symmetric di-methyl arginine antibody was purchased from EMD Millipore, Billerica, Mass., USA. 16% Paraformaldehyde was purchased from Electron Microscopy Sciences, Hatfield, Pa., USA.
Z-138 suspension cells were maintained in growth medium (RPMI 1640 supplemented with 10% v/v heat inactivated fetal bovine serum and 100 units/mL penicillin-streptomycin) and cultured at 37° C. under 5% CO2.
Cell Treatment, in Cell Western (ICW) for Detection of Symmetric Di-Methyl Arginine and DNA Content.
Z-138 cells were seeded in assay medium at a concentration of 50,000 cells per mL to a 384-well cell culture plate with 50 μL per well. Compound (100 nL) from 384 well source plates was added directly to 384 well cell plate. Plates were incubated at 37° C., 5% CO2 for 96 hours. After four days of incubation, 40 μL of cells from incubated plates were added to poly-D-lysine coated 384 well culture plates (BD Biosciences 356697). Plates were incubated at room temperature for 30 minutes then incubated at 37° C., 5% CO2 for 5 hours. After the incubation, 40 μL per well of 8% paraformaldehyde in PBS (16% paraformaldahyde was diluted to 8% in PBS) was added to each plate and incubated for 30 minutes. Plates were transferred to a Biotek 405 plate washer and washed 5 times with 100 μL per well of wash buffer (1×PBS with 0.1% Triton X-100 (v/v)). Next 30 μL per well of Odyssey blocking buffer were added to each plate and incubated 1 hour at room temperature. Blocking buffer was removed and 20 μL per well of primary antibody was added (symmetric di-methyl arginine diluted 1:100 in Odyssey buffer with 0.1% Tween 20 (v/v)) and plates were incubated overnight (16 hours) at 4° C. Plates were washed 5 times with 100 μL per well of wash buffer. Next 20 μL per well of secondary antibody was added (1:200 800CW goat anti-rabbit IgG (H+L) antibody, 1:1000 DRAQ5 (Biostatus limited) in Odyssey buffer with 0.1% Tween 20 (v/v)) and incubated for 1 hour at room temperature. The plates were washed 5 times with 100 μL per well wash buffer then 1 time with 100 μL per well of water. Plates were allowed to dry at room temperature then imaged on the Licor Odyssey machine which measures integrated intensity at 700 nm and 800 nm wavelengths. Both 700 and 800 channels were scanned.
First, the ratio for each well was determined by:
Each plate included fourteen control wells of DMSO only treatment (minimum inhibition) as well as fourteen control wells for maximum inhibition treated with 3 μM of a reference compound (Background wells). The average of the ratio values for each control type was calculated and used to determine the percent inhibition for each test well in the plate. Reference compound was serially diluted three-fold in DMSO for a total of nine test concentrations, beginning at 3 μM. Percent inhibition was determined and IC50 curves were generated using triplicate wells per concentration of compound.

Z-138 cells = assay: Z-138 Proliferation Assay (Cell Titer Glo); format: cell-based; conditions: Homo sapiens, 120 h, 5 days, top concentration 20 μM
Description: [formula] Z-138 Proliferation Assay
Z-138 suspension cells were purchased from ATCC (American Type Culture Collection, Manassas, Va.). RPMI/Glutamax medium, penicillin-streptomycin, heat inactivated fetal bovine serum were purchased from Life Technologies, Grand Island, N.Y., USA. V-bottom polypropylene 384-well plates were purchased from Greiner Bio-One, Monroe, N.C., USA. Cell culture 384-well white opaque plates were purchased from Perkin Elmer, Waltham, Mass., USA. Cell-Titer Glo® was purchased from Promega Corporation, Madison, Wis., USA. SpectraMax M5 plate reader was purchased from Molecular Devices LLC, Sunnyvale, Calif., USA.
Z-138 suspension cells were maintained in growth medium (RPMI 1640 supplemented with 10% v/v heat inactivated fetal bovine serum and cultured at 37° C. under 5% CO2. Under assay conditions, cells were incubated in assay medium (RPMI 1640 supplemented with 10% v/v heat inactivated fetal bovine serum and 100 units/mL penicillin-streptomycin) at 37° C. under 5% CO2.
For the assessment of the effect of compounds on the proliferation of the Z-138 cell line, exponentially growing cells were plated in 384-well white opaque plates at a density of 10,000 cells/ml in a final volume of 50 μl of assay medium. A compound source plate was prepared by performing triplicate nine-point 3-fold serial dilutions in DMSO, beginning at 10 mM (final top concentration of compound in the assay was 20 μM and the DMSO was 0.2%). A 100 nL aliquot from the compound stock plate was added to its respective well in the cell plate. […] After addition of compounds, assay plates were incubated for 5 days at 37° C., 5% CO2, relative humidity >90%. Cell viability was measured by quantitation of ATP present in the cell cultures, adding 35 μl of Cell Titer Glo® reagent to the cell plates. Luminescence was read in the SpectraMax M5 microplate reader. The concentration of compound inhibiting cell viability by 50% was determined using a 4-parametric fit of the normalized dose response curves.

O=c1cc(Nc2ccccc2)ccn1C[C@H](O)CN1CCc2ccccc2C1 [Compound 19, (R)-1-(3-(3,4-dihydroisoquinolin-2(1H)-yl)-2-hydroxypropyl)-4-(phenylamino)pyridin-2(1H)-one] was tested, and the EC50 [1] was 0.101 to 1 µM and the EC50 (Z-138 cells) was over 20 µM.
O=C1Cc2ccccc2N1CC(O)CN1CCc2ccccc2C1 (stereo not shown) [Compound 1, 1-(3-(3,4-dihydroisoquinolin-2(1H)-yl)-2-hydroxypropyl)indolin-2-one] showed an EC50 [1] of 0.101 to 1 µM and an EC50 (Z-138 cells) of over 20 µM.
Compound O=C1CN(c2ccccc2Cl)CCN1CC(O)CN1CCc2ccccc2C1 (stereo not shown) [Compound 9] has an EC50 [1] of 0.101 to 1 µM and an EC50 (Z-138 cells) of 10 to 50 µM.
In the case of Cc1ccc(N2CCN(CC(O)CN3CCc4ccccc4C3)C(=O)C2)cc1 (stereo not shown) [Compound 15, 1-(3-(3,4-dihydroisoquinolin-2(1H)-yl)-2-hydroxypropyl)-4-(p-tolyl)piperazin-2-one], the EC50 [1] is reported as 0.101 to 1 µM and the EC50 (Z-138 cells) is reported as over 20 µM.
In the case of O=C1CN(c2cccc3cccnc23)CCN1CC(O)CN1CCc2ccccc2C1 (stereo not shown) [Compound 4, 1-(3-(3,4-dihydroisoquinolin-2(1H)-yl)-2-hydroxypropyl)-4-(quinolin-8-yl)piperazin-2-one], the EC50 [1] is reported as 0.101 to 1 µM and the EC50 (Z-138 cells) is reported as 1 to 10 µM.
Work on O=C1CN(c2cncc(N3CCOCC3)c2)CCN1CC(O)CN1CCc2ccccc2C1 (stereo not shown) [Compound 8, 1-(3-(3,4-dihydroisoquinolin-2(1H)-yl)-2-hydroxypropyl)-4-(5-morpholinopyridin-3-yl)piperazin-2-one] yielded an EC50 [1] of 0.101 to 1 µM and an EC50 (Z-138 cells) of 1 to 10 µM.
Work on CN(C)c1ccccc1N1CCN(C[C@H](O)CN2CCc3ccccc3C2)C(=O)C1 [Compound 29] yielded an EC50 [1] of 0.101 to 1 µM and an EC50 (Z-138 cells) of 10 to 50 µM.
With O=C1COc2ccccc2N1CC(O)CN1CCc2ccccc2C1 (stereo not shown) [Compound 31, 4-(3-(3,4-dihydroisoquinolin-2(1H)-yl)-2-hydroxypropyl)-2H-benzo[b][1,4]oxazin-3(4H)-one] the EC50 [1] was 0.101 to 1 µM and the EC50 (Z-138 cells) was over 20 µM.
For O=C1CN(c2cccc(N3CCOCC3)c2)CCN1CC(O)CN1CCc2ccccc2C1 (stereo not shown) [Compound 12, 1-(3-(3,4-dihydroisoquinolin-2(1H)-yl)-2-hydroxypropyl)-4-(3-morpholinophenyl)piperazin-2-one], the EC50 [1] was under 0.1 µM and the EC50 (Z-138 cells) was 1 to 10 µM.
O=C1CN(c2ccc(Cl)cc2)CCN1CC(O)CN1CCc2ccccc2C1 (stereo not shown) [Compound 7, 4-(4-chlorophenyl)-1-(3-(3,4-dihydroisoquinolin-2(1H)-yl)-2-hydroxypropyl)piperazin-2-one] gave an EC50 [1] of 0.101 to 1 µM and an EC50 (Z-138 cells) of 10 to 50 µM.
Work on O=C1CN(c2cccc(F)c2)CCN1CC(O)CN1CCc2ccccc2C1 (stereo not shown) [Compound 6] yielded an EC50 [1] of 0.101 to 1 µM and an EC50 (Z-138 cells) of over 20 µM.

— patent US10150758B2, “PRMT5 inhibitors and uses thereof” (Epizyme, Inc., priority 2012, dated 2018)
